Experimental findings from ChEMBL document CHEMBL3580614, “Hypermongones A-J, Rare Methylated Polycyclic Polyprenylated Acylphloroglucinols from the Flowers of Hypericum monogynum” (J Nat Prod, 2015) are described below.

Bounds are passed on as bounds.

Data set [1] concerns RAW264.7. Put plainly: Antiinflammatory activity in mouse RAW264.7 cells assessed as inhibition of LPS-induced NO production incubated for 2 hrs prior to LPS-challenge measured after 24 hrs by Greiss assay. The class given is functional, cell-based.
In data set [2] the test system is RAW264.7. Put plainly: Cytotoxicity against mouse RAW264.7 cells assessed as cell viability up to 100 uM. The data set is classed as cell-based.

One may read the IC50 as the concentration that gives 50% inhibition. As for `CC[C@H](C)C(=O)[C@]12C(=O)[C@](C)(C[C@H](CC=C(C)C)[C@@]1(C)CCC=C(C)C)C(=O)C1=C2O[C@@H](C(C)(C)O)C1`, the IC50 in the data set on RAW264.7 [1] stood at 14.5 µM. In addition, the Activity entry in the data set with RAW264.7 [2] is recorded as “Non-toxic”.

Take `CC[C@H](C)C(=O)[C@]12C(=O)[C@](C)(C[C@H](CC=C(C)C)[C@@]1(C)CCC=C(C)C)C(=O)C1=C2O[C@H](C(C)(C)O)C1`: the IC50 with RAW264.7 [1] was 23.7 µM. Besides, the Activity entry with RAW264.7 [2] is reported as “Non-toxic”.

For `CC(C)=CCC[C@]1(C)[C@@H](CC=C(C)C)C[C@]2(C)C(=O)C3=C(O[C@@H](C(C)(C)O)C3)[C@@]1(C(=O)C(C)C)C2=O`, the half-maximal inhibitory concentration (IC50) in the data set with RAW264.7 [1] stood at 27.3 µM. Moreover, the Activity entry in the data set with RAW264.7 [2] is “Non-toxic”.

Turning to `CC(C)=CCC[C@]1(C)[C@@H](CC=C(C)C)C[C@]2(C)C(=O)C3=C(O[C@H](C(C)(C)O)C3)[C@@]1(C(=O)C(C)C)C2=O`, the IC50 in the data set with RAW264.7 [1] is over 50 µM. Moreover, in the data set on RAW264.7 [2], the Activity entry is reported as “Non-toxic”.

Turning to `CC[C@H](C)C(=O)[C@@]12C(=O)C3=C(O[C@H](C(C)(C)O)C3)[C@@](C)(C[C@H](CC=C(C)C)[C@@]1(C)CCC=C(C)C)C2=O`, the IC50 in the data set with RAW264.7 [1] came out at 18.7 µM. The Activity entry with RAW264.7 [2] is recorded as “Non-toxic”.

Turning to `CC[C@H](C)C(=O)[C@@]12C(=O)C3=C(O[C@@H](C(C)(C)O)C3)[C@@](C)(C[C@H](CC=C(C)C)[C@@]1(C)CCC=C(C)C)C2=O`, the IC50 with RAW264.7 [1] is 15.2 µM. Also, the Activity entry with RAW264.7 [2] was “Non-toxic”.

For the compound `CC(C)=CCC[C@]1(C)[C@@H](CC=C(C)C)C[C@@]2(C)C(=O)[C@]1(C(=O)C(C)C)C(=O)C1=C2O[C@H](C(C)(C)O)C1`, in the data set on RAW264.7 [1], the IC50 is 9.5 µM. In the data set with RAW264.7 [2], the Activity entry is recorded as “Non-toxic”.

Consider `CC(C)=CCC[C@]1(C)[C@@H](CC=C(C)C)C[C@@]2(C)C(=O)[C@]1(C(=O)C(C)C)C(=O)C1=C2O[C@@H](C(C)(C)O)C1`, for which, in the data set with RAW264.7 [1], the IC50 is 14.9 µM. In the data set on RAW264.7 [2], the Activity entry is listed as “Non-toxic”.

In the case of `CNC(=N)NCCC[C@H](N)C(=O)O` [TILARGININE], the IC50 in the data set with RAW264.7 [1] stood at 39.2 µM. Moreover, the Activity result in the data set with RAW264.7 [2] is reported as “Non-toxic”.
